From US20060167229A1, “Biologically active peptide conjugates” (priority 2002, published 2006)
Entries after “also recorded” stand apart in the source; their conditions may differ. Marks after values point to notes of the source that are not given here. Ends that are not written are not given here.

Tests used:
anti-SRBC antibody = assay: Sheep Red Blood Cell (SRBC) hemolysis test, antibody formation; format: in vivo, BALB/c mice; details: for anti-SRBC antibody formation, X ± SD (Unit): healthy mice, SRBC day 12 (IFN-γ, IL-2 3×10^5 IU/kg/day), saline 32 ± 7; for effect on the synthesis of anti-SRBC antibody upon the antigenic challenge (summary): statistically significant difference from saline in any of the dosage groups 0.5-500 μg/kg/day
In short: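 Antibody formation was read as haemolysis: 500-fold diluted serum, collected on day 16 after intraperitoneal SRBC (0.2 ml, day 12), was mixed with 2% SRBC plus complement for 10 min at 37° C. Supernatant haemoglobin measured with Drabkin reagent at OD540, indexed against a reference SRBC lysate ×500.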

interferon (IFN) = test system: interferon (IFN); design: species or system BALB/c mice; details: mouse, in vivo; for activity of T lymphocyte in secreting IFN, X ± SD (IU): ip
NK cell = NK cell cytotoxicity activity test (spleen cells of treated mice against YAC-1 target cells, MTT); format: in vivo, BALB/c mice; details: for NK cell cytotoxic activity, X ± SD (%): healthy mice; for effect on the cytotoxic activity of NK cells (summary): statistically significant difference from saline in any of the dosage groups 0.5-500 μg/kg/day
In short: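 YAC-1 target cells (1×10^5/ml) mixed with splenocytes (4×10^6/ml) from mice given test substances i.p. daily for 15 days (10 mice/group). Effector-only and target-only wells served as controls. MTT added at 1 mg/ml for 4 h at 37 °C; absorbance read at 570/630 nm.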

mononuclear phagocyte = assay: Carbon particle clearance test, phagocytosis function; format: in vivo, BALB/c mice; design: key to X ± SD (phagocytotic index): α = cube root of K × (body weight ÷ liver+spleen weight); details: for X ± SD (phagocytotic index): healthy mice, saline 5.1 ± 0.6; for effect on the phagocytotic activity of mononuclear phagocyte (summary): statistically significant difference from saline in any of the dosage groups 0.5-500 μg/kg/day
In short: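 Clearance index K came from OD680 of blood sampled 1 and 5 min after tail-vein India ink ([…], diluted 5×), given on day 16. Phagocytic index α combined K with liver, spleen […] weights taken the same day.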

thymus gland = assay: Immunity organ weight test, thymus gland index; format: in vivo, BALB/c mice; details: for weight of thymus gland (thymus gland index), X ± SD (%): healthy mice, saline 0.12 ± 0.02; for effect on the weight of the thymus gland (summary): statistically significant difference from saline in any of the dosage groups 0.5-500 μg/kg/day
Procedure: One day after the last test substance administration (day 16), the liver, spleen, and thymus gland were separated and blotted dry with filter paper and weighed. The phagocytosis index α was calculated as below: α=(^3√{square root over ( )}K)(W÷WLS)
Thymus gland index (%)=(thymus weight/body weight)×100%

[1] = peptide 0.5 μg/kg/day i.p. 15 days
[2] = peptide 5 μg/kg/day i.p. 15 days
[3] = peptide 50 μg/kg/day i.p. 15 days
[4] = peptide 500 μg/kg/day i.p. 15 days
[5] = peptide 50 μg/kg/day i.p. 15 days (IFN-γ, IL-2 3×10^5 IU/kg/day), saline 56 ± 8
[6] = peptide 5 μg/kg/day i.p. 15 days (IFN-γ, IL-2 3×10^5 IU/kg/day)
[7] = peptide 500 μg/kg/day i.p. 15 days (IFN-γ, IL-2 3×10^5 IU/kg/day)
[8] = peptide 0.5 μg/kg/day i.p. 15 days (IFN-γ, IL-2 3×10^5 IU/kg/day)
[9] = peptide 50 μg/kg/day i.p. 15 days (IFN-γ, IL-2 3×10^5 IU/kg/day)
[10] = peptide 0.5 μg/kg/day i.p. 15 days (IFN-γ, IL-2 3×10^5 IU/kg/day), saline 58 ± 7
[11] = peptide 5 μg/kg/day i.p. 15 days (IFN-γ, IL-2 3×10^5 IU/kg/day), saline 60 ± 9
[12] = peptide 500 μg/kg/day i.p. 15 days (IFN-γ, IL-2 3×10^5 IU/kg/day), saline 63 ± 9

Substance	anti-SRBC antibody formation, X ± SD (Unit) (anti-SRBC antibody; [1])	anti-SRBC antibody formation, X ± SD (Unit) (anti-SRBC antibody; [2])	anti-SRBC antibody formation, X ± SD (Unit) (anti-SRBC antibody; [3])	anti-SRBC antibody formation, X ± SD (Unit) (anti-SRBC antibody; [4])	NK cell cytotoxic activity, X ± SD (%) (NK cell; [5])	effect on the cytotoxic activity of NK cells (summary) (NK cell)	X ± SD (phagocytotic index) (mononuclear phagocyte; [6])	X ± SD (phagocytotic index) (mononuclear phagocyte; [7])	effect on the phagocytotic activity of mononuclear phagocyte (summary) (mononuclear phagocyte)	effect on the synthesis of anti-SRBC antibody upon the antigenic challenge (summary) (anti-SRBC antibody)	weight of thymus gland (thymus gland index), X ± SD (%) (thymus gland; [8])	weight of thymus gland (thymus gland index), X ± SD (%) (thymus gland; [9])	weight of thymus gland (thymus gland index), X ± SD (%) (thymus gland; [7])	effect on the weight of the thymus gland (summary) (thymus gland)	NK cell cytotoxic activity, X ± SD (%) (NK cell; [11])	weight of thymus gland (thymus gland index), X ± SD (%) (thymus gland; [6])	NK cell cytotoxic activity, X ± SD (%) (NK cell; [12])	further results
FNFVPP [CMS003]	2 ± 1 Unit	91 ± 24*^@ Unit	52 ± 11 Unit	96 ± 18*^@ Unit	85 ± 6	increase	6.9 ± 0.9*^	6.6 ± 0.7	enhance									effect on the secretion of IFN by T lymphocytes (summary) (interferon (IFN)): enhance; activity of T lymphocyte in secreting IFN, X ± SD (IU) (interferon (IFN)): 106 ± 16 IU
KAVGHLDDLPGAL [CMS008]		97 ± 26*^@ Unit		82 ± 15*^@ Unit			6.4 ± 0.5	6.5 ± 1.2	enhance	enhance	0.22 ± 0.07*^ %	0.20 ± 0.04*^@^ %	0.21 ± 0.03*^@^ %	increase	92 ± 4*^@^ %			NK cell cytotoxic activity, X ± SD (%) (NK cell; [10]): 46 ± 12 %
LGMQACGIHETTY [CMS012]		81 ± 22*^@ Unit	50 ± 14 Unit	141 ± 21*^@^ Unit	40 ± 9					enhance	0.22 ± 0.06*^ %	0.26 ± 0.02*^@^ %		increase	85 ± 7 %	0.27 ± 0.06*^@^ %		effect on the secretion of IFN by T lymphocytes (summary) (interferon (IFN)): enhance; activity of T lymphocyte in secreting IFN, X ± SD (IU) (interferon (IFN)): 86 ± 9 IU; NK cell cytotoxic activity, X ± SD (%) (NK cell; [10]): 77 ± 6 %
PTTKTYFPHF [CMS001]		110 ± 24*^@ Unit			85 ± 10	increase				enhance				increase		0.22 ± 0.05 %		effect on the secretion of IFN by T lymphocytes (summary) (interferon (IFN)): enhance; activity of T lymphocyte in secreting IFN, X ± SD (IU) (interferon (IFN)): 110 ± 15 IU
Phe Gln Gln Gln (FQQQ; printed: Phe Gln Gln Gln) [CMS032]		157 ± 37*^@^ Unit	131 ± 24*^@^ Unit			increase				enhance	0.21 ± 0.06 %	0.27 ± 0.03*^@^ %	0.25 ± 0.03*^@^ %	increase		0.29 ± 0.04*^@^ %	87 ± 5	
Phe Val Asn Asp (FVND; listed as Sus scrofa) [CMS035]		176 ± 39*^@^ Unit	97 ± 10*^@^ Unit	88 ± 16*^@ Unit	72 ± 9	increase	6.9 ± 0.9*^		enhance	enhance			0.21 ± 0.03*^@^ %	increase		0.21 ± 0.04 %	90 ± 10	NK cell cytotoxic activity, X ± SD (%) (NK cell; [10]): 76 ± 10 %
Pro Gln Asn Phe (PQNF; printed: Pro Gln Asn Phe) [CMS034]	20 ± 2 Unit	172 ± 37*^@^ Unit	136 ± 11*^@^ Unit			increase				enhance; also recorded: inhibit		0.19 ± 0.04*^ %	0.20 ± 0.05*^ %	increase	90 ± 5 %	0.27 ± 0.06*^@^ %	85 ± 9	
Pro Ser Ile Vat Gly Arg Pro Arg His Gln Gly Val Met (PSIVGRPRHQGVM; listed as Sus scrofa) [CMS015]	13 ± 4 Unit	94 ± 37*^@ Unit	54 ± 9*^@ Unit	136 ± 22*^@^ Unit	78 ± 8	increase				enhance; also recorded: inhibit				increase		0.20 ± 0.08 %		
Tyr Ser Leu (YSL; listed as Sus scrofa) [CMS024]	98 ± 6*^@^ Unit	171 ± 39*^@^ Unit		75 ± 29*^@ Unit		increase		6.4 ± 1.0	enhance	enhance		0.27 ± 0.02*^@^ %		increase	78 ± 3 %	0.23 ± 0.06*^ %	89 ± 8	X ± SD (phagocytotic index) (mononuclear phagocyte; [8]): 6.7 ± 0.5*^; X ± SD (phagocytotic index) (mononuclear phagocyte; [9]): 6.6 ± 0.7
VGMGQKDSY	12 ± 3 Unit	118 ± 20*^@^ Unit		91 ± 26*^@ Unit			6.8 ± 0.6*^		enhance			0.20 ± 0.03*^@^ %	0.19 ± 0.02 %	increase		0.24 ± 0.02*^@^ %		X ± SD (phagocytotic index) (mononuclear phagocyte; [9]): 6.7 ± 0.9*^
VGMGQKDSYV [CMS020]	10 ± 3 Unit	89 ± 24*^@ Unit		155 ± 35*^@^ Unit		increase		6.4 ± 0.6	enhance		0.23 ± 0.05*^@^ %	0.27 ± 0.03*^@^ %	0.19 ± 0.04 %	increase	91 ± 6 %	0.24 ± 0.07*^@^ %		
